Measurements reported in patent publication US7550469B2, “Heterocyclic amide derivatives and their use as dopamine D3 receptor ligands” (Aventis Pharmaceuticals Inc., priority 2001, dated 2009).
Like-named read-outs stand apart in the source and are kept apart here. Each block holds one compound with its values, some of them ahead of it.

Molecular target: T1, cloned human dopamine D3 receptors (Homo sapiens, UniProt P35462)
T1 construct: expressed in transfected cells; membrane homogenate
Assay: [N-Methyl-3H]Spiroperidol binding to cloned human dopamine D3 receptors (Protocol 1)
Method in brief: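 Radioligand displacement with [N-methyl-3H]spiroperidol used a physiological-salt Tris buffer (0.05 M, pH 7.7; NaCl 120 mM, KCl 5 mM, CaCl2 2 mM, MgCl2 1 mM) and membranes of a high-expressing stable CHO clone carrying human D3. Total ligand concentration came from measured added CPM; 0.1% ascorbic acid was optional for oxidizable compounds.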

[1] = the 15th table, read-out: D3 Ki
[2] = the 16th table, read-out: D3 Ki
[3] = the 13th table, unit inferred, read-out: D3Ki
[4] = the 19th table, read-out: D3 Ki

T1 sequence (P35462 whole entry): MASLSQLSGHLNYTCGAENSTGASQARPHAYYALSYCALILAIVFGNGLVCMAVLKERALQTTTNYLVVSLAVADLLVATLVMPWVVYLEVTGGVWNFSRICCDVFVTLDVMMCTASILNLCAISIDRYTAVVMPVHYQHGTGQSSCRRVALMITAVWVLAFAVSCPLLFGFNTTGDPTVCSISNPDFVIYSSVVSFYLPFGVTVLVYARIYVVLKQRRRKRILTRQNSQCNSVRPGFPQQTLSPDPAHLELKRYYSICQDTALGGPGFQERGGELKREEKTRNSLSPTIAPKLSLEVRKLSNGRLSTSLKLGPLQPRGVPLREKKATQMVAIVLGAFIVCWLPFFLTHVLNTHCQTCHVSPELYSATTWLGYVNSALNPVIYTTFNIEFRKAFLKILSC

Compound: O=C(Cc1cccs1)NCCCCN1C2CCC1CC(c1noc3ccccc13)C2 (stereo not shown) [compound 816521]
- Ki [1]: 328 nM

Compound: O=C(NCCCCN1C2CCC1CC(c1noc3ccccc13)C2)c1ccccc1C(F)(F)F (stereo not shown) [compound 816522]
- Ki [1]: 240 nM

Compound: O=C(NCCCCN1C2CCC1CC(c1noc3ccccc13)C2)c1ccc(Cl)cc1 (stereo not shown) [compound 816523]
- Ki [1]: 165 nM

Compound: O=C(NCCCCN1C2CCC1CC(c1noc3ccccc13)C2)C1CCCCC1 (stereo not shown) [compound 816524]
- Ki [1]: 357 nM

Compound: COc1ccccc1C(=O)NCCCCN1C2CCC1CC(c1noc3ccccc13)C2 (stereo not shown) [compound 816525]
- Ki [1]: 148 nM

Compound: Cc1ccc(C(=O)NCCCCN2C3CCC2CC(c2noc4ccccc24)C3)cc1 (stereo not shown) [compound 816526]
- Ki [1]: 375 nM

Compound: CCCCCCc1ccc(C(=O)NCCCCN2C3CCC2CC(c2noc4ccccc24)C3)cc1 (stereo not shown) [compound 816527]
- Ki [1]: 64.8 nM

Compound: O=C(NCCCCN1C2CCC1CC(c1noc3ccccc13)C2)c1ccccc1 (stereo not shown) [compound 816528]
- Ki [1]: 299 nM

Compound: CCCCOc1ccc(C(=O)NCCCCN2C3CCC2CC(c2noc4ccccc24)C3)cc1 (stereo not shown) [compound 816529]
- Ki [1]: 42.5 nM

Compound: O=C(NCCCCN1C2CCC1CC(c1noc3ccccc13)C2)c1ccc(C(F)(F)F)cc1 (stereo not shown) [compound 816530]
- Ki [1]: 110 nM

Compound: Cc1ccccc1C(=O)NCCCCN1C2CCC1CC(c1noc3ccccc13)C2 (stereo not shown) [compound 816531]
- Ki [1]: 299 nM

Compound: O=C(NCCCCN1C2CCC1CC(c1noc3ccccc13)C2)c1ccc(-c2ccccc2)cc1 (stereo not shown) [compound 816532]
- Ki [1]: 56.8 nM

Compound: COc1ccc(C(=O)NCCCCN2C3CCC2CC(c2noc4ccccc24)C3)cc1 (stereo not shown) [compound 816534]
- Ki [1]: 149 nM

Compound: O=C(NCCCCN1C2CCC1CC(c1noc3ccccc13)C2)c1cc2ccccc2s1 (stereo not shown) [compound 816535]
- Ki [1]: 66.4 nM

Compound: O=C(NCCCCN1C2CCC1CC(c1noc3ccccc13)C2)c1ccc(Br)cc1 (stereo not shown) [compound 816536]
- Ki [1]: 140 nM

Compound: O=C(NCCCCN1C2CCC1CC(c1noc3ccccc13)C2)c1ccccc1[N+](=O)[O-] (stereo not shown) [compound 816537]
- Ki [1]: 411 nM

Compound: O=C(NCCCCN1C2CCC1CC(c1noc3ccccc13)C2)c1cccc2ccccc12 (stereo not shown) [compound 816538]
- Ki [1]: 178 nM

Compound: O=C(NCCCCN1C2CCC1CC(c1noc3ccccc13)C2)c1cccc(F)c1F (stereo not shown) [compound 816540]
- Ki [1]: 225 nM

Compound: CSc1ncccc1C(=O)NCCCCN1C2CCC1CC(c1noc3ccccc13)C2 (stereo not shown) [compound 816541]
- Ki [1]: 511 nM

Compound: COc1cc(OC)cc(C(=O)Nc2cccc(CN3CCN(c4csc5cc(F)ccc45)CC3)c2)c1 [compound 822161]
- Ki [4]: 163 nM

Compound: O=C(Nc1cccc(CN2CCN(c3csc4cc(F)ccc34)CC2)c1)c1ccc(OC(F)(F)F)cc1 [compound 822162]
- Ki [4]: 380 nM

Compound: Cc1ccccc1C(=O)Nc1cccc(CN2CCN(c3csc4cc(F)ccc34)CC2)c1 [compound 822183]
- Ki [4]: 154 nM

Compound: O=C(Nc1cccc(CN2CCN(c3csc4cc(F)ccc34)CC2)c1)c1cnc2ccccc2n1 [compound 822184]
- Ki [4]: 271 nM

The next lines start with the values.

- Ki (Table 2, read-out: D3K1): 3.13 nM
- Ki [2]: 3.13 nM
Compound: Nc1ccc(C(=O)NCCCCN2CCCN(c3csc4cc(F)ccc34)CC2)cc1 [compound 817258]

- Ki (Table 2, read-out: D3K1): 2.93 nM
- Ki [2]: 2.93 nM
Compound: Nc1cc2ccccc2cc1C(=O)NCCCCN1CCCN(c2csc3cc(F)ccc23)CC1 [compound 817259]

- Ki (Table 2, read-out: D3K1): 1.89 nM
- Ki [2]: 1.89 nM
Compound: O=C(NCCCCN1CCCN(c2csc3cc(F)ccc23)CC1)c1ccc2ncccc2c1 [compound 817262]

- Ki (Table 2, read-out: D3K1): 331 nM
- Ki [2]: 331 nM
Compound: CN(C)c1ccc(C(=O)c2ccccc2C(=O)NCCCCN2CCCN(c3csc4cc(F)ccc34)CC2)cc1 [compound 817263]

- Ki (Table 2, read-out: D3K1): 6.44 nM
- Ki [2]: 6.44 nM
Compound: Nc1ccc(O)cc1C(=O)NCCCCN1CCCN(c2csc3cc(F)ccc23)CC1 [compound 817264]

- Ki (Table 2, read-out: D3K1): 46 nM
- Ki [2]: 46 nM
Compound: NS(=O)(=O)c1cc(C(=O)NCCCCN2CCCN(c3csc4cc(F)ccc34)CC2)c(O)c2ccccc12 [compound 817265]

- Ki (Table 2, read-out: D3K1): 8.73 nM
- Ki [2]: 8.73 nM
Compound: O=C(NCCCCN1CCCN(c2csc3cc(F)ccc23)CC1)c1cccc2cccnc12 [compound 817266]

- Ki (Table 2, read-out: D3K1): 3.03 nM
- Ki [2]: 3.03 nM
Compound: CCNc1ccccc1C(=O)NCCCCN1CCCN(c2csc3cc(F)ccc23)CC1 [compound 817267]

- Ki (Table 2, read-out: D3K1): 7.1 nM
- Ki [2]: 7.1 nM
Compound: CN(C)c1cccc(C(=O)NCCCCN2CCCN(c3csc4cc(F)ccc34)CC2)c1 [compound 817268]

- Ki (Table 2, read-out: D3K1): 4.74 nM
- Ki [2]: 4.74 nM
Compound: CN(C)c1ccccc1C(=O)NCCCCN1CCCN(c2csc3cc(F)ccc23)CC1 [compound 817269]

- Ki [3]: 0.448 nM
Compound: O=C(NCCCCN1CCCN(c2csc3cc(F)ccc23)CC1)c1cc2cc(O)ccc2[nH]1 [compound 817270]

- Ki (Table 2, read-out: D3K1): 326 nM
- Ki [2]: 326 nM
Compound: CC(C)(C)OC(=O)Cn1c(C(=O)NCCCCN2CCCN(c3csc4cc(F)ccc34)CC2)cc2ccccc21 [compound 817271]

- Ki (Table 2, read-out: D3K1): 2.44 nM
- Ki [2]: 2.44 nM
Compound: NS(=O)(=O)c1ccc(C(=O)NCCCCN2CCCN(c3csc4cc(F)ccc34)CC2)cc1 [compound 817276]

- Ki [3]: 2.7 nM
Compound: O=C(NCCCCN1CCCN(c2csc3cc(F)ccc23)CC1)c1cccs1 [compound 822149]

- Ki [3]: 6.3 nM
Compound: O=C(NCCCCN1CCCN(c2csc3cc(F)ccc23)CC1)c1ccc(Cl)cc1 [compound 822150]

- Ki [3]: 6.1 nM
Compound: O=C(NCCCCN1CCCN(c2csc3cc(F)ccc23)CC1)c1cccc2ccccc12 [compound 822153]

- Ki [3]: 10.8 nM
Compound: O=C(NCCCCN1CCCN(c2csc3cc(F)ccc23)CC1)c1cccc(C(F)(F)F)c1 [compound 822155]

- Ki [3]: 0.67 nM
Compound: O=C(NCCCCN1CCCN(c2csc3cc(F)ccc23)CC1)c1ccc2ccccc2c1 [compound 822156]

- Ki [3]: 1.1 nM
Compound: O=C(NCCCCN1CCCN(c2csc3cc(F)ccc23)CC1)c1cc2ccccc2s1 [compound 822158]

- Ki [4]: 96.7 nM
Compound: O=C(Nc1cccc(CN2CCN(c3csc4cc(F)ccc34)CC2)c1)c1cccs1 [compound 822159]

- Ki [4]: 167 nM
Compound: O=C(Nc1cccc(CN2CCN(c3csc4cc(F)ccc34)CC2)c1)c1cccc(F)c1 [compound 822164]

- Ki [4]: 26.5 nM
Compound: COc1ccc(C(=O)Nc2cccc(CN3CCN(c4csc5cc(F)ccc45)CC3)c2)cc1OC [compound 822180]

- Ki [4]: 332 nM
Compound: COc1cccc(C(=O)Nc2cccc(CN3CCN(c4csc5cc(F)ccc45)CC3)c2)c1 [compound 822181]

- Ki [4]: 50.7 nM
Compound: O=C(Nc1cccc(CN2CCN(c3csc4cc(F)ccc34)CC2)c1)c1ccncc1 [compound 822185]

- Ki [4]: 50.4 nM
Compound: O=C(Nc1cccc(CN2CCN(c3csc4cc(F)ccc34)CC2)c1)c1cccnc1Cl [compound 822186]

- Ki [4]: 140 nM
Compound: COc1ccc(C(=O)NCc2ccccc2CN2CCN(c3csc4cc(F)ccc34)CC2)cc1OC [compound 822188]

- Ki [3]: 4.7 nM
Compound: O=C(NCCCCN1CCCN(c2csc3cc(F)ccc23)CC1)c1ccccc1F [compound 822195]

- Ki [3]: 5 nM
Compound: COc1ccc(C(=O)NCCCCN2CCCN(c3csc4cc(F)ccc34)CC2)cc1OC [compound 822196]

- Ki [3]: 6.5 nM
Compound: COc1cccc(C(=O)NCCCCN2CCCN(c3csc4cc(F)ccc34)CC2)c1 [compound 822197]

- Ki [3]: 3.8 nM
Compound: Cc1ccccc1C(=O)NCCCCN1CCCN(c2csc3cc(F)ccc23)CC1 [compound 822199]

- Ki [3]: 10.6 nM
Compound: O=C(NCCCCN1CCCN(c2csc3cc(F)ccc23)CC1)c1cnc2ccccc2n1 [compound 822200]

- Ki [3]: 15 nM
Compound: O=C(NCCCCN1CCCN(c2csc3cc(F)ccc23)CC1)c1cccnc1Cl [compound 822201]
